Assay results from patent publication US12606813B2, “Compositions and methods for enzyme immobilization” (priority 2017, dated 2026).

Key:
Format in all cases: biochemical
[1] = test system: Brk-lipase: Bacillus sp. 42 thermostable organic solvent tolerant lipase (encoding nucleic acid SEQ ID NO: 15) fused to BrkA autotransporter, on the surface of …; experiment: Lipase activity, continuous spectrophotometric rate determination at 400 nm, Michaelis-Menten fit, Brk-lipase on minicell surface; conditions: 4-nitrophenyl-butyrate 0-5 mM, 37° C., pH 7.2; Cells/Well: 17,706,667; best-fit value
Description: (§1) Kinetic analysis of the reaction was analyzed by continuous spectrophotometric rate determination at 400 nm.
For a bacterial surface display system named as BrkAutoDisplay based on the structure of autotransporter BrkA (Bordetella serum-resistance killing protein A) was used to host an exogenous gene encoding lipase. To construct a recombinant Brk-lipase expression vector, Brk autotransporter gene was first cloned into the pGEX-6P-1 plasmid. Using BamHI and EcoRI restriction sites, the lipase-encoding gene was ligated with the Brk autotransporter gene, as illustrated in FIG. 6A. […]
(§2) In order to further confirm presence of the functional lipase-fusion protein in both the elution fraction from the protein purification and the surface of the cell, a lipase activity assay was designed using the lipase substrate, 4-nitrophenyl-butyrate. […] The pathlength, 0.625 cm, was calculated from the known volume of the well (200 uL) and the well's surface area (0.32 cm^2).
(§3) For the enzymatic assay, required are the reaction buffer (100 mM Sodium Phosphate Buffer solution pH 7.2, 0.5% (v/v) Triton-X 100, 150 mM Sodium Chloride), the enzyme/cell solution in 1×PBS, and the substrate solution which is varying concentrations of 4-nitrophenyl-butyrate in acetonitrile. […] Vmax and Km were calculated using GraphPad Prism Michaelis-Menten fitting parameters. […]

[2] = test system: InaK-lipase: Bacillus sp. 42 thermostable organic solvent tolerant lipase (encoding nucleic acid SEQ ID NO: 15) fused to Ice Nucleation Protein InaK, on the …; experiment: Lipase activity, continuous spectrophotometric rate determination at 400 nm, Michaelis-Menten fit, InaK-lipase on minicell surface; conditions: 4-nitrophenyl-butyrate 0-5 mM, 37° C., pH 7.2; Cells/Well: 107,840,000; best-fit value
Description: as §1
Another bacterial surface display protein, Ice Nucleation Protein K (InaK) was used for expressing recombinant lipase proteins fused to anchoring linker protein (motif) that direct the incorporated fusion protein on the surface of minicells. Like BrkAutoDisplay, polynucleotide encoding Inak transmembrane protein and the lipase-encoding gene were inserted into the pGEX-6P-1 vector for producing the bacterial surface display lipase protein as illustrated in FIG. 7A. […]
as §2
as §3, with “Activity was determined from a Michaelis-Menten fit of the” for “Vmax and Km were”, “rates resulting from varying the substrate concentration according to the Table 10.” for “using GraphPad Prism Michaelis-Menten fitting parameters.”

[3] = test system: AIDA-lipase (pAIDA-lipase): Bacillus sp. 42 thermostable organic solvent tolerant lipase (encoding nucleic acid SEQ ID NO: 15) fused to AIDA-1 autotransporter …; experiment: Lipase activity, continuous spectrophotometric rate determination at 400 nm, Michaelis-Menten fit, AIDA-lipase on minicell surface; conditions: 4-nitrophenyl-butyrate 0-5 mM, 37° C., pH 7.2; Cells/Well: 99,946,667; best-fit value
Description: as §1
This construction was conducted with primarily designed pAIDA-1 plasmid (from Addgene, Cambridge, MA) in which the lipase-encoding gene was ligated into the passenger domain within the AIDA-I autotransporter using KpnI and SacI sites as illustrated in FIG. 4A. The tags existed on the pAIDA-1 plasmid prior were used for further analysis on lipase expression. After the ligation is completed, the 6× His tag and HRV3C site are located at N-terminus of the lipase-encoding gene and the Myc tag and TEV site are placed at C-terminus of the lipase-encoding gene. The 6× His tag, which is the 5′ end of the surface-expressed fusion lipase protein was used for Cobalt immobilized metal affinity chromatography (IMAC) and for immunofluorescent staining with THE His Tag antibody [FITC] from Genscript. […]
as §2, with “cm^2). […]” for “cm^2).”

CCCC(=O)Oc1ccc([N+](=O)[O-])cc1 [4-nitrophenyl-butyrate]
Km [1]: 221 µM | Vmax [1]: 0.04453 µM/s | Km [2]: 302 µM | Vmax [2]: 0.06354 µM/s | Km [3]: 180 µM | Vmax [3]: 0.08174 µM/s
